Results taken from the CheMixHub viscosity set.

Experiment: xn = mol fraction of the nth substance listed
Details: 101 kPa

CCNc1ccccc1 + COC(C)(C)C
viscosity [mPa·s]
Details | 293.15 K | 298.15 K | 303.15 K | 308.15 K | 313.15 K | 318.15 K
x1 = 0.0583 | 0.428 | 0.412 | 0.395 | 0.374 | 0.351 | 0.325
x1 = 0.1047 | 0.465 | 0.445 | 0.425 | 0.401 | 0.376 | 0.348
x1 = 0.1493 | 0.503 | 0.479 | 0.455 | 0.429 | 0.402 | 0.371
x1 = 0.2021 | 0.552 | 0.523 | 0.495 | 0.465 | 0.434 | 0.4
x1 = 0.2544 | 0.605 | 0.57 | 0.537 | 0.503 | 0.469 | 0.432
x1 = 0.3064 | 0.663 | 0.621 | 0.583 | 0.544 | 0.506 | –
x1 = 0.3508 | 0.718 | 0.668 | 0.625 | 0.582 | 0.54 | –
x1 = 0.4031 | 0.787 | 0.728 | 0.678 | 0.63 | 0.584 | –
x1 = 0.45 | 0.855 | 0.787 | 0.73 | 0.677 | 0.625 | –
x1 = 0.5021 | 0.938 | 0.858 | 0.793 | 0.733 | 0.675 | –
x1 = 0.5506 | 1.022 | 0.931 | 0.857 | 0.789 | 0.725 | –
x1 = 0.6036 | 1.123 | 1.017 | 0.932 | 0.856 | 0.784 | –
x1 = 0.6519 | 1.225 | 1.103 | 1.006 | 0.921 | 0.843 | –
x1 = 0.701 | 1.337 | 1.197 | 1.089 | 0.993 | 0.907 | –
x1 = 0.7521 | 1.465 | 1.304 | 1.181 | 1.074 | 0.979 | –
x1 = 0.7985 | 1.592 | 1.409 | 1.271 | 1.153 | 1.049 | –
x1 = 0.8501 | 1.745 | 1.536 | 1.38 | 1.247 | 1.132 | –
x1 = 0.9006 | 1.909 | 1.67 | 1.493 | 1.346 | 1.218 | –
x1 = 0.949 | 2.081 | 1.81 | 1.612 | 1.448 | 1.306 | –
